Laboratory results reported in US8420052B2, “Imaging agents useful for identifying AD pathology” (Siemens Medical Solutions USA, Inc., priority 2008, dated 2013).

System: amyloid plaques and fibrils in human brain slices
Test: Human brain slice competition assay using autoradiography
Type: binding
Details: radiolabeled tracer approx. 20 uCi, 90 min rt, lower = more displacement; for _max low dose (percent dose remaining relative to control with no blocker): blocker 0.25 uM; for _max high dose (percent dose remaining relative to control with no blocker): blocker 2.5 uM
Protocol: Human Brain Slice Competition Assay Using Autoradiography
Briefly, 5 micron thick human brain slices from regions of the brain bearing high amyloid plaque and fibril burden were incubated with approximately 20 uCi of a radiolabeled tracer in 2.5%:2.5%:95% DMSO:EtOH:PBS in the presence of blocker (2.5 and 0.25 uM total concentration) or absence of blocker (control). The slices were incubated at rt for 90 min. The slices were then quickly washed in PBS, followed by 70% EtOH:PBS for 2 min, then 30% EtOH:PBS for 2 min and then quickly washed with PBS. The slices were dried for 30 min and then exposed on autoradiographic film for 20 min. The brain slices were then removed from the slide and the radioactivity counted in a gamma counter. The percent dose remaining, relative to a control with no blocker, at 0.25 uM is represented in the “_max low dose” column. The percent dose remaining, relative to a control with no blocker, at 2.5 uM is represented in the “_max high dose” column.

| Compound | _max low dose (percent dose remaining relative to control with no blocker) | _max high dose (percent dose remaining relative to control with no blocker) |
| --- | --- | --- |
| CNc1ccc(-c2nc3ccccc3s2)cc1 [BTA1, reference compound] | 33.66% | 17.80% |
| FCCOc1ccc2c(c1)[nH]c1ccccc12 [CB1] | 74.86% | 30.34% |
| FCCOCCOCCOc1ccc2c(c1)[nH]c1ccccc12 [CB3] | 69.78% | 29.53% |
| CNc1ccc2c(c1)[nH]c1cc(OCCOCCOCCF)ccc12 [CB4] | 54.17% | 16.96% |
| Cn1c2ccccc2c2ccc(OCCOCCOCCF)cc21 [CB6] | 111.02% | 113.69% |
| CN(C)c1ccc2c(c1)[nH]c1cc(OCCOCCOCCF)ccc12 [CB7] | 42.64% | 15.14% |
| CNc1ccc2[nH]c3ccc(OCCOCCOCCF)cc3c2c1 [CB8] | 95.89% | 108.49% |
| O=CNc1ccc2c(c1)[nH]c1cc(OCCOCCOCCF)ccc12 [CB9] | 93.92% | 80.06% |
| O=CNc1ccc2c(c1)[nH]c1cc(OCCOCCOCCF)ccc12 [CB10] | 69.29% | 21.60% |
| O=CNc1ccc2c(c1)[nH]c1cc(OCCF)ccc12 [CB12] | 59.97% | 12.29% |
| COc1ccc2[nH]c3ccc(NCCF)cc3c2c1 [CB13] | 108.14% | 110.57% |
| CN(CCCCF)c1ccc2c(c1)[nH]c1cc(O)ccc12 [CB14] | 114.19% | 49.02% |
| CC(=O)n1c2ccccc2c2ccc(OCCOCCOCCF)cc21 [CB17] | 91.06% | 62.03% |
| O=C(c1ccccc1)n1c2ccccc2c2ccc(OCCOCCOCCF)cc21 [CB21] | 104.81% | 94.00% |
| O=c1cc(-c2ccccc2)c2ccc(O)c(O)c2o1 [Compound 73] | 68.43% | 34.37% |
| COc1ccc2cc(-c3ccn[nH]3)ccc2c1 [Compound W1] | 70.48% | 35.38% |
| CN(C)c1ccc(/C=C2/C(=O)Nc3ccccc32)cc1 [Compound W12] | 105.11% | 45.98% |
| Oc1cccc2[nH]c3ccccc3c12 [Compound W19] | 100.46% | 89.32% |
| Nc1ccc2c(c1)oc1ccccc12 [Compound W20] | 95.11% | 43.52% |
| O=C(/C=C/C=C/c1ccccc1)c1cccs1 [Compound W24] | 55.16% | 23.51% |
| COc1cc2c(cc1N)oc1ccccc12 [Compound W33] | 82.52% | 36.72% |
| CC(=O)Nc1ccc2sc3ccccc3c2c1 [Compound W34] | 84.84% | 73.74% |
| Nc1ccc2c(c1)[nH]c1cc(OCc3ccccc3)ccc12 [Compound W42] | 49.95% | 17.60% |

| Compound | _max low dose (percent dose remaining relative to control with no blocker) | _max high dose (percent dose remaining relative to control with no blocker) |
| --- | --- | --- |
| Nc1ccc2[nH]c3ccc(OCc4ccccc4)cc3c2c1 [Compound W60] | 105.87% | 115.14% |
| COc1ccc2c(c1)[nH]c1c(C)nccc12 [Compound W65] | 105.49% | 94.16% |
| c1ccc2c(c1)[nH]c1cnccc12 [Compound W67] | 101.83% | 94.93% |
| c1ccc2c(c1)[nH]c1cc(OCCOCCOCCOc3ccc4c(c3)[nH]c3ccccc34)ccc12 [Compound W70] | 88.20% | 89.53% |
| CN(C)c1ccc(/C=C2\C(=O)Nc3ccc(F)cc32)cc1 [Compound W71] | 104.61% | 88.00% |
| Oc1cccc(-c2cc3ccccn3c2)c1 [Compound W73] | 66.38% | 35.16% |
| N#Cc1ccc(/C=C2\C(=O)Nc3ccc(F)cc32)cc1 [Compound W79] | 92.77% | 96.90% |
| c1ccc2c(c1)Cn1c-2nc2ccccc21 [Compound W81] | 96.06% | 81.94% |
| FCCOc1cccc(-c2cc3ccccn3c2)c1 [Compound W84] | 97.22% | 40.32% |
| O=c1sc2ccccc2n1/C=C/c1ccccc1 [Compound W88] | 29.58% | 7.65% |
| CC(=O)c1ccc2[nH]c(=O)sc2c1 [Compound W92] | 112.87% | 88.58% |
| FCCOCCOCCOc1ccc2c(c1)[nH]c1sc3ccccc3c12 [Compound W94] | 103.76% | 40.74% |
| N#CC1c2ccc(O)cc2N2C=CC=CC12 (stereo not drawn) [Compound W99] | 87.14% | 76.06% |
| NC(=O)c1ccc2cc(-c3cccc([N+](=O)[O-])c3)cn2c1 [Compound W100] | 97.53% | 75.02% |
| CN(CCOCCOCCF)c1ccc2c(c1)[nH]c1cc(O)ccc12 [Compound W101] | 81.33% | 73.62% |
| CN(C)c1ccc2c3ccc(OCCF)cc3n(CCF)c2c1 [Compound W102] | 91.92% | 92.00% |
| Oc1ccc(-c2cc3ccccn3c2)cc1 [Compound W103] | 35.38% | 3.50% |
| CNc1ccc2c(c1)[nH]c1cc(OCc3ccccc3)ccc12 [Compound W104] | 48.35% | 34.77% |
| CNc1ccc2c(c1)[nH]c1cc(OCCF)ccc12 [Compound W106] | 46.04% | 21.03% |
| COc1ccc2c(c1)sc1nc(-c3ccc(F)cc3)cn12 [Compound W119] | – | 7.85% |
| CNc1ccc(-c2nc3ccc(OC)cc3s2)cn1 [Compound W184] | – | 8.05% |
| CNc1ccc(-c2ccc3scnc3c2)cc1 [Compound W189, 4-(benzo[d]thiazol-5-yl)-N-methylaniline] | – | 9.53% |
